Entries after “also recorded” stand apart in the source; their conditions may differ.

The test system of this experiment is FL9 T cells. Put plainly: Activation (CD69) of FL9 TCR+ hybridoma / FL9 T cells by peptide-loaded EL4 (Qa-1+) cells. It is filed as cell-based, mouse. The settings on record: 0, 1, 3 and 10 μg/ml, compared with cognate FL9 self-peptide. The protocol: FIG. 4 provides a graphical representation showing a Qa-1-peptide yeast library, which identified peptides with superagonistic activity. FL9 T cells were stimulated with EL4 (Qa-1+) cells in the presence of surrogate peptides selected from peptide-Qa-1 yeast library for 3 days. Activation status of FL9 T cells was measured by CD69 expression.
FIG. 58A-C and FIG. 58D-E provides representation showing identification of superagonists for FL9 T cells. FIG. 58(A) provides a schematic showing a library composed of 96 FL9 peptide variants (crude peptides) was generated by aa mutagenesis at the Qa-1 anchoring positions (p2, p3, p6, p^7 and p9). FL9 TCR^+ hybridomas were incubated with EL4 cells (Qa-1^+) loaded with each FL9 peptide variant for 12 hrs and CD69 expression and TCR downregulation were measured as an indication of TCR stimulation. […] Expression of Vα3.2 and Vβ5 on EL4 cells (trogocytosis) was measured (right). […] Dose-dependent activation of FL9 T cells was measured by culturing FL9.2 T cells with EL4 (Qa-1^+) at various concentrations of indicated peptides (0, 1, 3 and 10 μg/ml). […] Six days later, proliferation of FL9.2 T cells (CD45.2^+Vα3.2^+VD5^+) was measured by CFSE dilution (left). CD45.1^+ B6 mice were immunized with Ova323-339 peptide in CFA on day 6 and the frequency of I-A^b/Ova323-339 Tet^+ CD4 cells in activated (CD44^+) CD4 cells was analyzed on day 14. […]

Turning to “FYAEATLML [FL9-68, FL9 peptide variant containing a P→L substitution at pos 7; superagonist for CD8 Treg]”, the “stimulatory activity for FL9 T cells / FL9.2 and FL9.8 TCRs (CD69 expression)” value was “superior ability to activate FL9 T cells; also recorded: superior ability to stimulate FL9 T cells; also recorded: markedly enhanced dose-dependent stimulatory activity; also recorded: significantly enhanced stimulating activity in vitro and in vivo; also recorded: significantly enhanced stimulatory activity in vitro and in vivo”.
